This passage reports IC50 and solubility results from patent US9657057B2, “Dipeptide and tripeptide epoxy ketone protease inhibitors” (Onyx Therapeutics, Inc., priority 2013, dated 2017).

In brackets after ≈: the same amount, converted by molar mass. Several values for one entry are separate records, joined by “and”; a condition that tells them apart may be missing. Equal entries are not always repeated.

The target in one data set is T1, LMP7 (Homo sapiens, UniProt P20618+P28062).
T1 construct: endogenous in cells; host or cells: MOLT-4
Put plainly: ProCISE proteasome subunit assay, LMP7. The format is biochemical. As to conditions: MOLT4 lysate Hu 1 h. The procedure, abridged:
(§1)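 MOLT-4 cell lysate was incubated with compound for 1 h at 25° C, then a subunit-binding probe was applied; probe-bound subunits were pulled down on streptavidin beads after guanidine denaturation and detected with subunit-specific antibodies by HRP chemiluminescence. Signal was normalized to protein and expressed as percent of DMSO control to fit IC50.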

A further data set concerns the target T2, β5 (Homo sapiens, UniProt P20618+P28074).
T2 construct: endogenous in cells; host or cells: MOLT-4
Put plainly: ProCISE proteasome subunit assay, β5. The format is biochemical. As to conditions: MOLT4 lysate Hu 1 h. The procedure, abridged: as §1

A short description of the next data set: Solubility pH 7. As to conditions: pH 7, aqueous buffer. The format is physicochemical.
Data set [1] concerns the target i20S (20S immunoproteasome) (Homo sapiens, UniProt P20618+P28062). Put plainly: 20S proteasome assay, chymotrypsin-like activity (LLVY), i20S. The format is biochemical. To be noted: LLVY i20S Hu 1 h CONT: IC50 (nM), succinyl-Leu-Leu-Val-Tyr-AMC. The text has this:
(§2) Assay buffer consisted of TE buffer [20 mmol/L Tris (pH 8.0), 0.5 mmol/L EDTA] with (20S) or without (cell lysate) 0.03% SDS. Reactions were initiated by enzyme or lysate addition and monitored for AMC product formation at 27jC with a plate-based spectofluorometer (Tecan).

For data set [2], the target named is c20S (constitutive 20S proteasome) (Homo sapiens, UniProt P20618+P28074). Put plainly: 20S proteasome assay, chymotrypsin-like activity (LLVY), c20S. The format is biochemical. As to conditions: LLVY c20S Hu 1 h CONT: IC50 (nM), succinyl-Leu-Leu-Val-Tyr-AMC.
Text: as §2

With `COc1ccc(C[C@H](NC(=O)[C@@H](C)NC(=O)c2nc3ccccc3n2C)C(=O)N[C@@H](CC2CCCC2)C(=O)[C@@]2(C)CO2)cc1` [Compound C-2038, N—((R)-1-(((S)-1-(((S)-3-cyclopentyl-1-((R)-2-methyloxiran-2-yl)-1-oxopropan-2-yl)amino)-3-(4-methoxyphenyl)-1-oxopropan-2-yl)amino)-1-oxopropan-2-yl)-1-methyl-1H-benzo[d]imidazole-2-carboxamide], the IC50 (in general, the midpoint of a concentration-inhibition curve) was 286 nM against LMP7; 2700 nM against β5; 722 nM and 649 nM in data set [1]; 3550 nM and 7630 nM in data set [2]. The solubility – broadly, the dissolved amount per volume that the medium holds – in “Solubility pH 7” is 1.8 µg/mL (≈ 2.98 µM).
On to `COc1ccc(C[C@H](NC(=O)[C@@H](CN2CCOCC2)NC(=O)c2cc(C)no2)C(=O)N[C@@H](CC2CCCC2)C(=O)[C@@]2(C)CO2)cc1` [Compound C-2045, N—((R)-1-(((S)-1-(((S)-3-cyclopentyl-1-((R)-2-methyloxiran-2-yl)-1-oxopropan-2-yl)amino)-3-(4-methoxyphenyl)-1-oxopropan-2-yl)amino)-3-morpholino-1-oxopropan-2-yl)-3-methylisoxazole-5-carboxamide], for which the IC50 was determined as 220 nM at LMP7, 2940 nM at β5, 102 nM in data set [1] and 1290 nM in data set [2]. The compound also showed a solubility in the data set “Solubility pH 7” of 160 µg/mL (≈ 250 µM).
In the same order, the values of `COc1ccc(C[C@H](NC(=O)[C@@H](C)NC(=O)C2=C(C)c3ccccc3C2)C(=O)N[C@@H](CC2CCCC2)C(=O)[C@@]2(C)CO2)cc1` [Compound C-2040, N—((R)-1-(((S)-1-(((S)-3-cyclopentyl-1-((R)-2-methyloxiran-2-yl)-1-oxopropan-2-yl)amino)-3-(4-methoxyphenyl)-1-oxopropan-2-yl)amino)-1-oxopropan-2-yl)-3-methyl-1H-indene-2-carboxamide] are 75 nM, 3750 nM, 624 nM, 4610 nM and 0.3 µg/mL (≈ 0.499 µM).
In the same order, the values of `CCOCC(=O)N[C@H](C)C(=O)N[C@@H](Cc1ccc(OC)cc1)C(=O)N[C@@H](CC1CCCC1)C(=O)[C@@]1(C)CO1` [Compound C-2021, (S)—N—((S)-3-cyclopentyl-1-((R)-2-methyloxiran-2-yl)-1-oxopropan-2-yl)-2-((R)-2-(2-ethoxyacetamido)propanamido)-3-(4-methoxyphenyl)propanamide] are 1890 nM, 30800 nM, 1220 nM, 99000 nM and 103 µg/mL (≈ 193 µM).
In the case of `COCOCCC(=O)N[C@@H](C)C(=O)N[C@@H](Cc1ccc(OC)cc1)C(=O)N[C@@H](Cc1ccccc1)C(=O)[C@@]1(C)CO1` [Compound C-2013, (S)-2-((S)-2-(3-(methoxymethoxy)propanamido)propanamido)-3-(4-methoxyphenyl)-N—((S)-1-((R)-2-methyloxiran-2-yl)-1-oxo-3-phenylpropan-2-yl)propanamide], the IC50 at LMP7 amounted to 66.7 nM; against β5, 359 nM; in data set [1], 40.2 nM; in data set [2] it was 117 nM. The concentration in solution in the data set “Solubility pH 7” (solubility) was 725 µg/mL (≈ 1270 µM).
In the same order, the values of `COc1ccc(C[C@H](NC(=O)[C@@H](C)NC(=O)CC(C)(C)O)C(=O)N[C@@H](CC2CCCC2)C(=O)[C@@]2(C)CO2)cc1` [Compound C-2028, N—((R)-1-(((S)-1-(((S)-3-cyclopentyl-1-((R)-2-methyloxiran-2-yl)-1-oxopropan-2-yl)amino)-3-(4-methoxyphenyl)-1-oxopropan-2-yl)amino)-1-oxopropan-2-yl)-3-hydroxy-3-methylbutanamide] are 75.7 nM, 1160 nM, 11.9 nM, 323 nM and 776 µg/mL (≈ 1420 µM).
On to `COc1ccc(C[C@H](NC(=O)[C@@H](C)NC(=O)c2cc(C)no2)C(=O)N[C@@H](CC2CCCC2)C(=O)[C@@]2(C)CO2)cc1` [Compound C-2023, N—((R)-1-(((S)-1-(((S)-3-cyclopentyl-1-((R)-2-methyloxiran-2-yl)-1-oxopropan-2-yl)amino)-3-(4-methoxyphenyl)-1-oxopropan-2-yl)amino)-1-oxopropan-2-yl)-3-methylisoxazole-5-carboxamide], for which the IC50 on LMP7 was 318 nM; against β5, 2690 nM; in data set [1], 55.3 nM; in data set [2], 857 nM. Also, the concentration in solution in the data set “Solubility pH 7” (solubility) came to 100 µg/mL (≈ 181 µM).
In the same order, the values of `COc1ccc(C[C@H](NC(=O)[C@@H](C)NC(=O)CC(C)(C)O)C(=O)N[C@@H](CC2CCCC2)C(=O)[C@@]2(C)CO2)cc1O` [Compound C-2059, N—((R)-1-(((S)-1-(((S)-3-cyclopentyl-1-((R)-2-methyloxiran-2-yl)-1-oxopropan-2-yl)amino)-3-(3-hydroxy-4-methoxyphenyl)-1-oxopropan-2-yl)amino)-1-oxopropan-2-yl)-3-hydroxy-3-methylbutanamide] are 71 nM, 534 nM, 15.9 nM, 246 nM and 2450 µg/mL (≈ 4360 µM).
In the same order, the values of `C[C@@H](NC(=O)CC(C)(C)O)C(=O)N[C@@H](Cc1ccc(S(C)(=O)=O)cc1)C(=O)N[C@@H](CC1CCCC1)C(=O)[C@@]1(C)CO1` [Compound C-2050, N—((R)-1-(((S)-1-(((S)-3-cyclopentyl-1-((R)-2-methyloxiran-2-yl)-1-oxopropan-2-yl)amino)-3-(4-(methylsulfonyl)phenyl)-1-oxopropan-2-yl)amino)-1-oxopropan-2-yl)-3-hydroxy-3-methylbutanamide] are 67.1 nM, 595 nM, 49.2 nM, 521 nM and 6160 µg/mL (≈ 10400 µM).
In the same order, the values of `COc1ccc(C[C@H](NC(=O)[C@H](C)NC(=O)CC(C)(C)O)C(=O)N[C@@H](CC2CCCC2)C(=O)[C@@]2(C)CO2)cc1` [Compound C-2027, N—((S)-1-(((S)-1-(((S)-3-cyclopentyl-1-((R)-2-methyloxiran-2-yl)-1-oxopropan-2-yl)amino)-3-(4-methoxyphenyl)-1-oxopropan-2-yl)amino)-1-oxopropan-2-yl)-3-hydroxy-3-methylbutanamide] are 618 nM, 3600 nM, 470 nM, 2130 nM and 753 µg/mL (≈ 1380 µM).
As for `COc1ccc(C[C@H](NC(=O)[C@H](CO)NC(C)=O)C(=O)N[C@@H](Cc2ccccc2)C(=O)[C@@]2(C)CO2)cc1` [Compound C-2007, (S)-2-acetamido-3-hydroxy-N—((S)-3-(4-methoxyphenyl)-1-(((S)-1-((R)-2-methyloxiran-2-yl)-1-oxo-3-phenylpropan-2-yl)amino)-1-oxopropan-2-yl)propanamide], the IC50 against LMP7 is 211 nM; at β5, 478 nM; in data set [1], 118 nM; in data set [2], 432 nM. Besides, the concentration in solution in “Solubility pH 7” (solubility) was 728 µg/mL (≈ 1420 µM).
In the same order, the values of `COc1ccc(C[C@H](NC(=O)[C@@H](C)NC(=O)CC(C)(C)O)C(=O)N[C@@H](CC2=CCCC2)C(=O)[C@@]2(C)CO2)cc1O` [Compound C-2060, N—((R)-1-(((S)-1-(((S)-3-(cyclopent-1-en-1-yl)-1-((R)-2-methyloxiran-2-yl)-1-oxopropan-2-yl)amino)-3-(3-hydroxy-4-methoxyphenyl)-1-oxopropan-2-yl)amino)-1-oxopropan-2-yl)-3-hydroxy-3-methylbutanamide] are 60.4 nM, 368 nM, 17.3 nM, 201 nM and 3010 µg/mL (≈ 5390 µM).
In the same order, the values of `COc1ccc(C[C@H](NC(=O)[C@@H](C)NC(=O)CC(C)(O)C(F)(F)F)C(=O)N[C@@H](CC2CCCC2)C(=O)[C@@]2(C)CO2)cc1` (stereo partly drawn) [Compound C-2054, N—((R)-1-(((S)-1-(((S)-3-cyclopentyl-1-((R)-2-methyloxiran-2-yl)-1-oxopropan-2-yl)amino)-3-(4-methoxyphenyl)-1-oxopropan-2-yl)amino)-1-oxopropan-2-yl)-4,4,4-trifluoro-3-hydroxy-3-methylbutanamide] are 75 nM, 670 nM, 55 nM, 723 nM and 122 µg/mL (≈ 204 µM).
In the same order, the values of `COCCC(=O)N[C@H](C)C(=O)N[C@@H](Cc1ccc(OC)cc1)C(=O)N[C@@H](CC1CCCC1)C(=O)[C@@]1(C)CO1` [Compound C-2018, (S)—N—((S)-3-cyclopentyl-1-((R)-2-methyloxiran-2-yl)-1-oxopropan-2-yl)-3-(4-methoxyphenyl)-2-((R)-2-(3-methoxypropanamido)propanamido)propanamide] are 1180 nM, 34900 nM, 570 nM, 12800 nM and 129 µg/mL (≈ 243 µM).
